This note sets out measurements from US8026254B2, “Therapeutic agents useful for treating pain” (Purdue Pharma, L.P., priority 2002, dated 2011).

The assay deals with μ-opioid receptors (Homo sapiens, UniProt P35372). Put plainly: μ-opioid receptor radioligand dose-displacement binding assay ([3H]-diprenorphine). As to the method:
μ- and ORL-1-Receptor-Binding-Assay Procedures
Radioligand dose-displacement binding assays for ORL-1 and […] use 0.1 nM [^3H]-nociceptin or 0.2 nM [^3H]-diprenorphine (NEN, Boston, Mass.), respectively, with […] membrane protein/well in a final volume of […] binding buffer (10 mM MgCl2, 1 mM EDTA, 5% DMSO, 50 mM HEPES, pH 7.4). Reactions are carried out in the absence or presence of increasing concentrations of unlabled nociceptin (American Peptide Company, Sunnyvale, Calif.) or naloxone, for ORL-1 and μ, respectively. All reactions are conducted in 96-deep well polypropylene plates for 1-2 h at room temperature. Binding reactions are terminated by rapid filtration onto 96-well Unifilter GF/C filter plates (Packard, Meriden, Conn.) presoaked in 0.5% polyethylenimine using a 96-well tissue harvester (Brandel, Gaithersburg, Md.) followed performing by three filtration washes with 500 μL of ice-cold binding buffer. Filter plates are subsequently dried at 50° C. for 2-3 h. BetaScint scintillation cocktail (Wallac, Turku, Finland) is added (50 μl/well), and plates are counted using a Packard Top-Count for 1 min/well. The data are analyzed using the one-site competition curve fitting functions in GraphPad PRISM v. 3.0 (San Diego, Calif.).

Sequence of μ-opioid receptors (P35372 whole entry): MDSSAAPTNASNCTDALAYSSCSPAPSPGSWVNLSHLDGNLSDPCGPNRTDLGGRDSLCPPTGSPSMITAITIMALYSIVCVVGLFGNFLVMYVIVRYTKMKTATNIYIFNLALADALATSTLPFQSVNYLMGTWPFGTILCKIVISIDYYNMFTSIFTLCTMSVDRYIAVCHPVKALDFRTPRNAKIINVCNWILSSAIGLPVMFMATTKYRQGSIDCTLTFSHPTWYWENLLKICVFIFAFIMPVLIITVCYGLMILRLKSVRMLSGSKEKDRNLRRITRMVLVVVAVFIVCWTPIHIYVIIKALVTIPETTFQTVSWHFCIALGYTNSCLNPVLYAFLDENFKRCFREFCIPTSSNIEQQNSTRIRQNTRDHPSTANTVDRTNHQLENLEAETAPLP

Take `CN(C)C(=O)C(CCN1CCC(c2ccccc2)(c2nnn[nH]2)CC1)(c1ccccc1)c1ccccc1` [AFD]: the inhibitory constant (Ki) was 3.2 nM.
